Our source for the Kd values is PMC6291622, “Vitamin E Increases Antimicrobial Sensitivity by Inhibiting Bacterial Lipocalin Antibiotic Binding” (mSphere, 2018).

The target in this assay is T1, BcnA (Burkholderia cenocepacia, UniProt B4EE32).
T1 construct: gene BCAL3311; purified BcnA expressed from pET28a-bcnA in E. coli BL21
T1 sequence (B4EE32 27-186): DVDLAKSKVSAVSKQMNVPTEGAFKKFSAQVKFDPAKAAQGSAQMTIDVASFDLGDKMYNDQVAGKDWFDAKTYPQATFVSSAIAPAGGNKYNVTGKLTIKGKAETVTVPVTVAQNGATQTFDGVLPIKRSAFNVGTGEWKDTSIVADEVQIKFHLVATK
In words: isothermal titration calorimetry (ITC), […]°C, PBS pH […], N = […]. Type of assay: binding. For orientation: ITC needs no label: the signal is the heat of the interaction.

Take `CCn1cc(C(=O)O)c(=O)c2cc(F)c(N3CCNCC3)cc21` [norfloxacin]: the dissociation constant (Kd) came out at 4.9 mM.

The Kd is the free concentration of one partner at which half of the binding sites on the other are occupied at equilibrium, for simple one-to-one binding. Read a high Kd as lower affinity.
